Measurements from ChEMBL document CHEMBL1909046, “DrugMatrix in vitro pharmacology data”.

Assays:
[1] = target: T1, Adenosine receptor A1 (Homo sapiens, UniProt P30542); assay type: cell membranes, Membrane; settings: cho;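 further: radioligand binding assay at the adenosine A1 receptor, with DPCPX serving as the labelled ligand; in other assays of this panel Not Active means under 50% inhibition at 10 µM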
T1 sequence (P30542 whole entry): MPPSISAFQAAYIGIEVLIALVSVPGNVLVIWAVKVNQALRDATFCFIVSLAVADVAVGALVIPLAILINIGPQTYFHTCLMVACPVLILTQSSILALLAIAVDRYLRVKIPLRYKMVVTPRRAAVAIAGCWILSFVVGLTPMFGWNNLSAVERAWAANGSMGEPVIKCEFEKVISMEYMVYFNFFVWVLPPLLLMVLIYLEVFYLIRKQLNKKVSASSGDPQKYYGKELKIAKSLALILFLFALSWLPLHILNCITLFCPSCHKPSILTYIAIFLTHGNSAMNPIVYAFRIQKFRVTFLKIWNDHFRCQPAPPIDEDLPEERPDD

[2] = target: T2, Polyunsaturated fatty acid lipoxygenase ALOX15 (Oryctolagus cuniculus, UniProt P12530); assay: biochemical; assay type: tissue-based, Reticulocytes;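 further: inhibition of 15-lipoxygenase enzyme activity measured with linoleic acid as the substrate; in other assays of this panel Not Active means under 50% inhibition at 10 µM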
T2 sequence (P12530 whole entry): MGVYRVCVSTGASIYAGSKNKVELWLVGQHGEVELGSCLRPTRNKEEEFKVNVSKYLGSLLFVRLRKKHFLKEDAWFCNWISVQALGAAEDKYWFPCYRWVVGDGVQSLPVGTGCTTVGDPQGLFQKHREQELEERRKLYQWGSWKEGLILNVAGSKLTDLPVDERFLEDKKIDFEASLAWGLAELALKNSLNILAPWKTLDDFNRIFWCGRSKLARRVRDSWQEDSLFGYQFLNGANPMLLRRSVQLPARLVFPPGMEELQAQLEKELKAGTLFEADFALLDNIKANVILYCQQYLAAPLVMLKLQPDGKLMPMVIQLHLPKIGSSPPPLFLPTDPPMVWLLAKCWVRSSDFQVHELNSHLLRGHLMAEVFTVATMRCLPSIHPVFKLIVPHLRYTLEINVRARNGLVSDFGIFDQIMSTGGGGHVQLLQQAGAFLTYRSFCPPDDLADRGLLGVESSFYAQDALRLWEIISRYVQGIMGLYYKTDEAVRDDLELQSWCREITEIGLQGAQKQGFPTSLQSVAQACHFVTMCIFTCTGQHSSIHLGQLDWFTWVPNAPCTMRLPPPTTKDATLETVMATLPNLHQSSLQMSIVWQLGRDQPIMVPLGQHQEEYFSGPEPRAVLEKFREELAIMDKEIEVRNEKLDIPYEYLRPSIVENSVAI

[3] = target: T3, Cysteinyl leukotriene receptor 1 (Homo sapiens, UniProt Q9Y271); assay type: cell membranes, CHO-K1, Membrane; further: in other assays of this panel Not Active means under 50% inhibition at 10 µM
T3 sequence (Q9Y271 whole entry): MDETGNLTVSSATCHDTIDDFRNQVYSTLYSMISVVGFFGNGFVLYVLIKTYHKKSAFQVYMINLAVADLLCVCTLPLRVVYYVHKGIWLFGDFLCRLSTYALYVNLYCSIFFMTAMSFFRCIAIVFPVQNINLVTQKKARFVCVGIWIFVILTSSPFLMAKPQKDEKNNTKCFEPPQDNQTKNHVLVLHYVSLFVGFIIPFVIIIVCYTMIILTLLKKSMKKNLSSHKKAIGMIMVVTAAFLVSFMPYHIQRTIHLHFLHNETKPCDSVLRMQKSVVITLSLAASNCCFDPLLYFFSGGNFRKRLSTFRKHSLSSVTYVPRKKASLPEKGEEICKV

[4] = DRUGMATRIX: Calcium Channel Type L, Dihydropyridine radioligand binding (ligand: [3H] Nitrendipine); assay type: cell membranes, Rattus norvegicus, Wistar, Cerebral cortex, Membrane; settings: Not Active = under 50% inhibition at 10 µM
[5] = target: Cytochrome P450 2E1 (Homo sapiens, UniProt P05181); settings: bti-tn-5b1-4; further: in other assays of this panel Not Active means under 50% inhibition at 10 µM
Chain of Cytochrome P450 2E1 (P05181 whole entry): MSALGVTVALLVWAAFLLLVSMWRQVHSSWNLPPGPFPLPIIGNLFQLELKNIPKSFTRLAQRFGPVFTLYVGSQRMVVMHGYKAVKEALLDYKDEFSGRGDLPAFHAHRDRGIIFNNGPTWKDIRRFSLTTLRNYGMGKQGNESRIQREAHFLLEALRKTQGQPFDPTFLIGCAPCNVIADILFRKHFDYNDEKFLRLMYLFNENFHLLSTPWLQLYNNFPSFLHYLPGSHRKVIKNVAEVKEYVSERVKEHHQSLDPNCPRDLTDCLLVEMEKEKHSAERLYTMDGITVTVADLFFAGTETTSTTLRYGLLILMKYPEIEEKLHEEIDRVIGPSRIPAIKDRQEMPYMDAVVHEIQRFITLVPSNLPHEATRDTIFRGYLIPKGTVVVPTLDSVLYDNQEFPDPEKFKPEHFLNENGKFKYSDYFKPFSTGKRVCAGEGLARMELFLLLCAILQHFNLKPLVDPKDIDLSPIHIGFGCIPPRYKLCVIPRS

[6] = target: C-C chemokine receptor type 2 (Homo sapiens, UniProt P41597); assay type: cell membranes, CHO-K1, Membrane; settings: cho-k1; further: in other assays of this panel Not Active means under 50% inhibition at 10 µM
Chain of C-C chemokine receptor type 2 (P41597 whole entry): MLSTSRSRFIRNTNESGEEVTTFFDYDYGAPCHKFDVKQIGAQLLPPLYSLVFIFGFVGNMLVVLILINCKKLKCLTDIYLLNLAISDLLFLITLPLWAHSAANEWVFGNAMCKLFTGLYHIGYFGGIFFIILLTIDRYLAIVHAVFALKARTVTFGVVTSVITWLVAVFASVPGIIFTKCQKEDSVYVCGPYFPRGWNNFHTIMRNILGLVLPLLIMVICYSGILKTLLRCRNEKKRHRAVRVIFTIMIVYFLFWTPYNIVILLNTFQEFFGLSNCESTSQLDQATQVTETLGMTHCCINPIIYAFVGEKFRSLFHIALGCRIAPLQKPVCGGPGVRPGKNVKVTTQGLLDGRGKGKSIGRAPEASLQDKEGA

[7] = target: T4, Progesterone receptor (Bos taurus, UniProt Q690N0); assay: DRUGMATRIX: Progesterone radioligand binding (ligand: [3H] R-5020); assay type: tissue-based, Uterus; settings: Not Active = under 50% inhibition at 10 µM
T4 sequence (Q690N0 whole entry): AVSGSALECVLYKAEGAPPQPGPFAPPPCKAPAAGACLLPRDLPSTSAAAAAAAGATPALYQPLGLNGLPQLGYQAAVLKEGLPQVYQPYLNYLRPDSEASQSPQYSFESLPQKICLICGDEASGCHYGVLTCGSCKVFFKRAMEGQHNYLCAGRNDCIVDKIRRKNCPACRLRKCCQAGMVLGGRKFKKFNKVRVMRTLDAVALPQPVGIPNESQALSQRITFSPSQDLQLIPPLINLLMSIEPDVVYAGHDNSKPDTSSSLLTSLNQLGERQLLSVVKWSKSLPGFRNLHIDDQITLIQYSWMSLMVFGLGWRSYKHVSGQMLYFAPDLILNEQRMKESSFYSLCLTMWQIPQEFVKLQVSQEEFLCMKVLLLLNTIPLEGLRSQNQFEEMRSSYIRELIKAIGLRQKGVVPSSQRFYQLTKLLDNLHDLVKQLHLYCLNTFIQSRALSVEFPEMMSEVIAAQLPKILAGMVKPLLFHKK

[8] = target: T5, C-C chemokine receptor type 4 (Homo sapiens, UniProt P51679); assay type: cell membranes, Membrane; settings: chem-1; further: in other assays of this panel Not Active means under 50% inhibition at 10 µM
T5 sequence (P51679 whole entry): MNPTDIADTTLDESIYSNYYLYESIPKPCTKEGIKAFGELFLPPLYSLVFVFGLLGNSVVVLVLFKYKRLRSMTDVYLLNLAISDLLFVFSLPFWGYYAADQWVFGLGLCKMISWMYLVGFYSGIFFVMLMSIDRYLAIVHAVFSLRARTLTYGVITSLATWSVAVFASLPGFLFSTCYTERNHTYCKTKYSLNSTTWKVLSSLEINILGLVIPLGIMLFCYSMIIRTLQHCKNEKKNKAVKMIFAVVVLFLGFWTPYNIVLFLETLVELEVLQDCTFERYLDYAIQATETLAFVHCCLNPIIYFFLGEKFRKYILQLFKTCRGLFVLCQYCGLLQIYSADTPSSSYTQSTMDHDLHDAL

[9] = target: Voltage-gated inwardly rectifying potassium channel KCNH2 (Homo sapiens, UniProt Q12809); settings: hek293; further: in other assays of this panel Not Active means under 50% inhibition at 10 µM
Chain of Voltage-gated inwardly rectifying potassium channel KCNH2 (Q12809 whole entry): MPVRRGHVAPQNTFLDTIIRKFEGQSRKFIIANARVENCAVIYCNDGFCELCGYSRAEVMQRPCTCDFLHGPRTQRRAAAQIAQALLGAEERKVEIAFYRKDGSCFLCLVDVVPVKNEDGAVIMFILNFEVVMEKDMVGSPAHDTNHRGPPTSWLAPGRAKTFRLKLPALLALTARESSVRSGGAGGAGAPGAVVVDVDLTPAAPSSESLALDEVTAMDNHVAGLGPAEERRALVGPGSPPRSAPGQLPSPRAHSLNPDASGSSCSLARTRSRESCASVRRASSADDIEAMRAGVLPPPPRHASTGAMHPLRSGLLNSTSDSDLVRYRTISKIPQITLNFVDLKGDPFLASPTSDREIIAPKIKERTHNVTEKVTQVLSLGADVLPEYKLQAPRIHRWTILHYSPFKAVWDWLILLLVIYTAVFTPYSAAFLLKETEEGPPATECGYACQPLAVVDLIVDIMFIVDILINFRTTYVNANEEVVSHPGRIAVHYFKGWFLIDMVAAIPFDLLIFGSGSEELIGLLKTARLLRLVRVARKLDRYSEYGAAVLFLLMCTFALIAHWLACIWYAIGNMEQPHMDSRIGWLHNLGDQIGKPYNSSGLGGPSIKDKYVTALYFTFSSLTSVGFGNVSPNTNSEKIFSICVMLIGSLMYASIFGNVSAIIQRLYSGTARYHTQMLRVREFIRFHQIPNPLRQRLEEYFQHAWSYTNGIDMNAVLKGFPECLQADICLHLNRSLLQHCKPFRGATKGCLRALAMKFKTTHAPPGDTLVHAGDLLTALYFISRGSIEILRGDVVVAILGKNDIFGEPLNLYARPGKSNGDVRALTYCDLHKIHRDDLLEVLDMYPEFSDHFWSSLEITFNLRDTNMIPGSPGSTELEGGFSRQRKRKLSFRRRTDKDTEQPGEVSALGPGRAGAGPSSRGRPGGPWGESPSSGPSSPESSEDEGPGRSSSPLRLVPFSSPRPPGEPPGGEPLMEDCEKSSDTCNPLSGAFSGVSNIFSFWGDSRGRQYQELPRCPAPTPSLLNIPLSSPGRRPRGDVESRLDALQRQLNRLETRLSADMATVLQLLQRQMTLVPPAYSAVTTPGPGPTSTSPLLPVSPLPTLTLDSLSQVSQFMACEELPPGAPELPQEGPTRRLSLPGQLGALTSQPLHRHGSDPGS

Structure (SMILES) | IC50 [1] | IC50 ([2]; reticulocytes) | IC50 ([3]; cho-k1) | IC50 [4] | Ki [4] | IC50 [5] | Ki [5] | Ki [6] | IC50 [7] | IC50 [8] | IC50 [9] | Ki [9] | IC50 [6] | IC50 ([2]; read-out: IC50) | IC50 ([3]; read-out: IC50) | Ki ([3]; read-out: Ki) | Ki ([7]; read-out: Ki) | IC50 ([4]; read-out: IC50) | Ki ([4]; read-out: Ki)
Cc1cc(C)nc(NS(=O)(=O)c2ccc(N)cc2)n1 [SULFAMETHAZINE] | Not Active | Not Active | Not Active | Not Active | Not Active | Not Active | Not Active | Not Active | Not Active | Not Active | Not Active | Not Active |  |  |  |  |  |  | 
CN1CCC(=C2c3ccccc3C=Cc3ccccc32)CC1 [CYPROHEPTADINE] | Not Active | Not Active | Not Active |  |  | Not Active | Not Active |  | Not Active | Not Active |  |  | Not Active |  |  |  |  |  | 
CNC(=C[N+](=O)[O-])NCCSCc1ccc(CN(C)C)o1 [RANITIDINE] | Not Active | Not Active | Not Active | Not Active | Not Active | Not Active | Not Active |  | Not Active | Not Active | Not Active | Not Active | Not Active |  |  |  |  |  | 
CC(=O)N1CCN(c2ccc(OCC3COC(Cn4ccnc4)(c4ccc(Cl)cc4Cl)O3)cc2)CC1 (stereo unspecified) [KETOCONAZOLE] | Not Active |  | Not Active | Not Active | Not Active | Not Active | Not Active |  | Not Active | Not Active |  |  | Not Active | 5420 nM |  |  |  |  | 
CC(C)CC(N(C)C)C1(c2ccc(Cl)cc2)CCC1 (stereo unspecified) [SIBUTRAMINE] | Not Active | Not Active | Not Active | Not Active | Not Active | Not Active | Not Active |  | Not Active | Not Active | Not Active | Not Active | Not Active |  |  |  |  |  | 
Cc1onc(-c2ccccc2)c1-c1ccc(S(N)(=O)=O)cc1 [VALDECOXIB] | Not Active | Not Active | Not Active | Not Active | Not Active | Not Active | Not Active |  | Not Active | Not Active | Not Active | Not Active | Not Active |  |  |  |  |  | 
CC/C(=C(/CC)c1ccc(O)cc1)c1ccc(O)cc1 [DIETHYLSTILBESTROL] |  |  |  |  |  | Not Active | Not Active |  |  | Not Active | Not Active | Not Active | Not Active | 2960 nM | 17700 nM | 8870 nM | 611 nM |  | 
C[C@]1(Cn2ccnn2)[C@H](C(=O)O)N2C(=O)C[C@H]2S1(=O)=O [TAZOBACTAM] | Not Active | Not Active | Not Active | Not Active | Not Active | Not Active | Not Active |  | Not Active | Not Active | Not Active | Not Active | Not Active |  |  |  |  |  | 
COCCOC(=O)C1=C(C)NC(C)=C(C(=O)OC(C)C)C1c1cccc([N+](=O)[O-])c1 (stereo unspecified) [NIMODIPINE] | Not Active | Not Active | Not Active |  |  |  |  |  | Not Active | Not Active | Not Active | Not Active | Not Active |  |  |  |  | 0.242 nM | 0.156 nM
Cc1cccc(Nc2ccncc2S(=O)(=O)NC(=O)NC(C)C)c1 [TORSEMIDE] | Not Active | Not Active | Not Active | Not Active | Not Active | Not Active | Not Active |  | Not Active | Not Active | Not Active | Not Active | Not Active |  |  |  |  |  | 
C=CCN1CC[C@]23c4c5ccc(O)c4O[C@H]2C(=O)CC[C@@]3(O)[C@H]1C5 [NALOXONE] | Not Active | Not Active | Not Active |  |  |  |  |  | Not Active | Not Active | Not Active | Not Active | Not Active |  |  |  |  |  | 
CC(C)NCC(O)COc1cccc2ccccc12 (stereo unspecified) [PROPRANOLOL] | Not Active | Not Active | Not Active |  |  | Not Active | Not Active |  | Not Active | Not Active | Not Active | Not Active | Not Active |  |  |  |  |  | 
CC(C)c1nc(CN(C)C(=O)N[C@H](C(=O)N[C@@H](Cc2ccccc2)C[C@H](O)[C@H](Cc2ccccc2)NC(=O)OCc2cncs2)C(C)C)cs1 [RITONAVIR] | Not Active | Not Active | Not Active | Not Active | Not Active |  |  |  | Not Active | Not Active |  |  | Not Active |  |  |  |  |  | 
Clc1ccc2c(c1)C(N1CCNCC1)=Nc1ccccc1O2 [AMOXAPINE] | Not Active | Not Active | Not Active |  |  | Not Active | Not Active |  | Not Active | Not Active | Not Active | Not Active | Not Active |  |  |  |  |  | 
CC(C)(C)c1ccc(C(O)CCCN2CCC(C(O)(c3ccccc3)c3ccccc3)CC2)cc1 (stereo unspecified) [TERFENADINE] | Not Active | Not Active | Not Active |  |  | Not Active | Not Active |  | Not Active | Not Active |  |  | Not Active |  |  |  |  | 779 nM | 501 nM
COc1cc2c(c(OC)c1OC)-c1ccc(OC)c(=O)cc1[C@@H](NC(C)=O)CC2 [COLCHICINE] | Not Active | Not Active | Not Active |  |  | Not Active | Not Active |  | Not Active | Not Active | Not Active | Not Active | Not Active |  |  |  |  |  | 
C[C@@H](N)[C@H]1CC[C@H](C(=O)Nc2ccncc2)CC1 [Y-27632] | Not Active | Not Active | Not Active | Not Active | Not Active | Not Active | Not Active |  | Not Active | Not Active |  |  | Not Active |  |  |  |  |  | 
